We go through 2 compounds from patent US20050095305A1, “Anti-aging agents” (priority 2001, published 2005).

Common to all, as to format: biochemical
Assay [1] is described as follows: Activity against free radicals, Method A (DPPH° test). The note with it: optical density at 513 nm. Here is the method: (§1) The effectiveness of the test substances against free radicals was tested by various chemical and biochemical methods: • Method A A first test was carried out using diphenylpicrylhydrazyl (DPPH°) which is a relatively stable radical that forms a purple-colored solution. The optical density (DO) at 513 nm was determined. • Method B Hydroxyl radicals were released from hydrogen peroxide in the presence of iron(II) ions and EDTA and were used to oxidize deoxyribose. The oxidation product forms a pink-colored compound with thiobarbituric acid. Its concentration corresponds to the optical density at 532 nm. […] The superoxide anions dismute into hydrogen peroxide and oxygen either spontaneously or in the presence of Superoxid Dismutase. The quantity of superoxide anion can be determined by NBT reduction via the optical density at 490 nm. A test was conducted to determine whether fewer superoxide anions are generated or more anions are destroyed in the presence of the test substances. The results are set out in Table 1 and represent the EC50 values in % (w/v).

The nature of assay [2]: Activity against free radicals, Method B (hydroxyl radicals, deoxyribose oxidation with EDTA). The note with it: hydrogen peroxide, iron(II) ions and EDTA, optical density at 532 nm. The protocol:
as §1

Assay [3] in a line: Activity against free radicals, Method C (deoxyribose oxidation in the absence of EDTA). The conditions noted are these: as Method B in the absence of EDTA. The protocol: as §1
The nature of assay [4]: Activity against free radicals, Method D (xanthine oxidase, NBT reduction). The note with it: optical density at 490 nm. Here is the method:
as §1

`O=C1O[C@H]([C@@H](O)CO)C(O)=C1O` [Ascorbic acid]: the “Effect against free radicals, Method A, EC50” value in assay [1] is 0.0013 % (w/v). The “Effect against free radicals, Method B, EC50” value in assay [2] is reported as 0.261 % (w/v). In addition, in assay [3], the “Effect against free radicals, Method C, EC50” value was 0.9 % (w/v). The “Effect against free radicals, Method D, EC50” value in assay [4] is recorded as 0.591 % (w/v).
For the compound Tocopherol, in assay [1], the “Effect against free radicals, Method A, EC50” value was 0.0067 % (w/v). In addition, in assay [4], the “Effect against free radicals, Method D, EC50” value is “No effect”.
